Experimental findings from DBAASP are described below.

Among the test systems are Serratia marcescens; Salmonella typhimurium; Bacillus subtilis; Cryptococcus neoformans; Escherichia coli; Pseudomonas putida; Streptococcus pneumoniae; Staphylococcus aureus; Saccharomyces cerevisiae; Streptococcus mutans; Candida albicans; Escherichia coli K88; Escherichia coli 078; Escherichia coli K99; Escherichia coli UB1005; Proteus mirabilis; Bacillus megaterium Bm11; Escherichia coli ML-35.

Common to all, as to assay: ≥ marks a high value that may be exact or a test limit, other limits are often not marked, values filed in µg/mL are converted to µM
Assay [1] concerns Pseudomonas putida ATCC 17426.
Assay [2] concerns Bacillus subtilis ATCC 62037.
For assay [3], the system named is Escherichia coli ATCC 27325.
Assay [4] has as its system Staphylococcus aureus ATCC 15752.
Assay [5] deals with Candida albicans ATCC 10231.
In assay [6] the test system is Cryptococcus neoformans ATCC 34881.
Assay [7] deals with Salmonella enterica subsp. enterica serovar Enteritidis ATCC 13076.
Assay [8] relates to Saccharomyces cerevisiae ATCC 44774.
For assay [9], the system named is Streptococcus mutans ATCC 25175.
In assay [10] the test system is Staphylococcus aureus ATCC 33592.
Assay [11] has as its system Salmonella enterica subsp. enterica serovar Typhimurium C77-31.
Assay [12] deals with Salmonella enterica subsp. enterica serovar Pullorum C79-13.
In assay [13] the test system is Staphylococcus epidermidis ATCC 12228.
The subject of assay [14] is Bacillus subtilis CMCC 63501.
Assay [15] relates to Salmonella enterica subsp. enterica serovar Typhimurium ATCC 14028.
The subject of assay [16] is Enterococcus faecalis ATCC 29212.
Assay [17] concerns Staphylococcus aureus ATCC 29213.
The test system of assay [18] is Staphylococcus aureus ATCC 25923.
In assay [19] the test system is Escherichia coli ATCC 25922.

Each structure is given as a SMILES string. In brackets after ≈: the same amount, converted by molar mass. Some results are limits rather than exact numbers.

For the compound `CC(C)C[C@H](NC(=O)CNC(=O)[C@H](C)NC(=O)[C@@H](N)CCCN=C(N)N)C(=O)N[C@@H](CCC(N)=O)C(=O)N[C@@H](Cc1ccccc1)C(=O)N1CCC[C@H]1C(=O)N[C@H](C(=O)NCC(=O)N[C@@H](CCCN=C(N)N)C(=O)N[C@@H](CC(C)C)C(=O)N[C@@H](CC(C)C)C(=O)N[C@@H](CCCN=C(N)N)C(=O)N[C@@H](CCCN=C(N)N)C(=O)N[C@@H](CC(C)C)C(=O)N[C@@H](CC(C)C)C(=O)N[C@@H](CCCN=C(N)N)C(=O)N[C@@H](CCCN=C(N)N)C(=O)N[C@@H](CC(C)C)C(=O)N[C@@H](CC(C)C)C(=O)N[C@@H](CCCN=C(N)N)C(=O)O)C(C)C` [RAGLQFPVGRLLRRLLRRLLR], the MIC was found to be 0.781 µM (≈ 2 µg/mL) in assay [1]; 0.391 µM (≈ 1 µg/mL) in the assay on Serratia marcescens; 0.391 µM (≈ 1 µg/mL) in assay [2]; 0.391 µM (≈ 1 µg/mL) in the assay on Salmonella typhimurium; 0.391 µM (≈ 1 µg/mL) in assay [3]; 0.781 µM (≈ 2 µg/mL) in assay [4]. Also, the MIC with Bacillus subtilis came out at 0.391 µM (≈ 1 µg/mL); in the assay on Cryptococcus neoformans, 0.391 µM (≈ 1 µg/mL); with Escherichia coli, 0.391 µM (≈ 1 µg/mL); in [5], 0.391 µM (≈ 1 µg/mL); against Pseudomonas putida, 0.781 µM (≈ 2 µg/mL); in assay [6], 0.781 µM (≈ 2 µg/mL). In addition, the MIC in assay [7] came out at 0.781 µM (≈ 2 µg/mL); against Streptococcus pneumoniae, 0.391 µM (≈ 1 µg/mL); in [8], 0.781 µM (≈ 2 µg/mL); against Staphylococcus aureus it was 0.391 µM (≈ 1 µg/mL); in the assay with Saccharomyces cerevisiae, 1.56 µM (≈ 4 µg/mL); in [9], 0.781 µM (≈ 2 µg/mL). Besides, the MIC against Streptococcus mutans was determined as 0.195 µM (≈ 0.5 µg/mL); against Candida albicans, 0.781 µM (≈ 2 µg/mL).
For `CC[C@H](C)[C@H](NC(=O)[C@H](Cc1c[nH]c2ccccc12)NC(C)=O)C(=O)N[C@@H](CCCCN)C(=O)N[C@@H](CCCN=C(N)N)C(=O)N[C@@H](CC(C)C)C(=O)N[C@@H](CC(N)=O)C(=O)N[C@@H](CO)C(=O)N[C@@H](Cc1c[nH]c2ccccc12)C(=O)N[C@@H](CC(C)C)C(=O)N[C@@H](CCCN=C(N)N)C(=O)N[C@@H](CCCCN)C(N)=O` [WIKRLNSWLRK], the MIC in [10] is at least 32 µM.
As to `CC[C@H](C)[C@H](NC(=O)[C@H](Cc1c[nH]c2ccccc12)NC(=O)[C@H](CCCCN)NC(=O)[C@H](Cc1c[nH]c2ccccc12)NC(=O)[C@@H](NC(=O)[C@H](Cc1c[nH]c2ccccc12)NC(=O)CNC(=O)[C@@H](NC(=O)[C@H](CCCCN)NC(=O)[C@H](CCCCN)NC(=O)[C@H](Cc1c[nH]c2ccccc12)NC(=O)[C@@H](N)CCCN=C(N)N)[C@@H](C)CC)C(C)C)C(N)=O` [RWKKIGWVWKWI], the MIC stood at 2 µM (≈ 3.37 µg/mL) against Escherichia coli K88; 4 µM (≈ 6.74 µg/mL) in [11]; 1 µM (≈ 1.69 µg/mL) in assay [12]; 4 µM (≈ 6.74 µg/mL) in assay [13]; 1 µM (≈ 1.69 µg/mL) in assay [14]; 2 µM (≈ 3.37 µg/mL) in assay [15]. Further, the MIC came to 2 µM (≈ 3.37 µg/mL) in [16]; 4 µM (≈ 6.74 µg/mL) in assay [17]; 2 µM (≈ 3.37 µg/mL) against Escherichia coli 078; 2 µM (≈ 3.37 µg/mL) in the assay with Escherichia coli K99; 1 µM (≈ 1.69 µg/mL) in the assay on Escherichia coli UB1005; 2 µM (≈ 3.37 µg/mL) in [18]. The same compound registered an MIC in [19] of 2 µM (≈ 3.37 µg/mL).
In the case of `CC[C@H](C)[C@H](NC(=O)CN)C(=O)N[C@@H](CC(C)C)C(=O)N[C@@H](CO)C(=O)N[C@@H](CCCCN)C(=O)N[C@@H](CC(C)C)C(=O)NCC(=O)N[C@@H](CCCCN)C(=O)N[C@@H](C)C(=O)N[C@@H](CC(C)C)C(=O)N[C@@H](CCCCN)C(=O)N[C@@H](CCCCN)C(=O)N[C@@H](C)C(=O)N[C@@H](C)C(=O)N[C@@H](CCCCN)C(=O)N[C@@H](Cc1cnc[nH]1)C(=O)N[C@@H](C)C(=O)N[C@@H](C)C(=O)N[C@@H](CCCCN)C(=O)N[C@@H](C)C=O` [GILSKLGKALKKAAKHAAKA], the MIC was at least 32 µM against Proteus mirabilis; 4 µM (≈ 7.95 µg/mL) in the assay on Bacillus megaterium Bm11; 4 µM (≈ 7.95 µg/mL) against Escherichia coli; 8 µM (≈ 15.9 µg/mL) in [15]; 8 µM (≈ 15.9 µg/mL) with Escherichia coli ML-35; 2 µM (≈ 3.98 µg/mL) with Staphylococcus aureus. Further, the MIC in assay [18] was 8 µM (≈ 15.9 µg/mL).
As to `CC(C)C[C@H](NC(=O)CNC(=O)[C@H](CCCCN)NC(=O)[C@@H](N)CCCN=C(N)N)C(=O)N[C@@H](CCC(N)=O)C(=O)N[C@@H](CCCCN)C(=O)N[C@@H](CC(C)C)C(=O)N[C@H](C(=O)NCC(=O)N[C@@H](CCCN=C(N)N)C(=O)N[C@H](C(=O)N[C@@H](Cc1cnc[nH]1)C(=O)N[C@@H](CCCN=C(N)N)C(=O)N[C@@H](CC(C)C)C(=O)N[C@@H](CC(C)C)C(=O)N[C@@H](CCCN=C(N)N)C(=O)N[C@@H](CCCCN)C(=O)O)C(C)C)C(C)C` [RKGLQKLVGRVHRLLRK], the MIC was 15.6 µM (≈ 32 µg/mL) against Serratia marcescens; 1.94 µM (≈ 4 µg/mL) against Salmonella typhimurium; 7.78 µM (≈ 16 µg/mL) in the assay on Bacillus subtilis; 3.89 µM (≈ 8 µg/mL) with Cryptococcus neoformans; 7.78 µM (≈ 16 µg/mL) in the assay with Escherichia coli; 7.78 µM (≈ 16 µg/mL) in the assay on Pseudomonas putida. Besides, the MIC turned out to be 7.78 µM (≈ 16 µg/mL) against Streptococcus pneumoniae; 7.78 µM (≈ 16 µg/mL) against Staphylococcus aureus; 1.94 µM (≈ 4 µg/mL) with Saccharomyces cerevisiae; 15.6 µM (≈ 32 µg/mL) against Streptococcus mutans; 7.78 µM (≈ 16 µg/mL) in the assay on Candida albicans.
